Measured values reported in patent US20100227853A1, “INHIBITORS OF CYCLIC AMP PHOSPHODIESTERASES” (Trustees of Boston College, priority 2008, published 2010).
pEC50, pIC50: −log10 of the molar value.

Experiments:
[1] = system: Cgs2-2; experiment: fbp1-lacZ β-galactosidase reporter assay, Cgs2-2 strain; type: cell-based, S. pombe; details: strain LWP98 (Cgs2-2)
Experimental: (§1) β-galactosidase assays and characterization of 5FOA-sensitivity were carried out as previously described^10. cAMP assays were performed on exponential phase cells grown in EMM complete medium (3% glucose), using the Assay Designs cAMP EIA kit, according to manufacturer's instructions (Assay Designs, Ann arbor, Mich.).
(§2) The effect of known PDE inhibitors on the expression of the fbp1-lacZ fusion in murine PDE-expressing strains was tested. […] For Table 4 β-galactosidase activity was determined from 3 to 4 independent exponential phase cultures. The average±SD represents specific activity per milligram of soluble protein.

[2] = biological target: T1, PDE7B (Homo sapiens, UniProt Q9NP56); experiment: in vitro enzyme assay, PDE7B catalytic domain from E. coli, hydrolysis of cAMP to AMP; type: biochemical; parameters: The PDE7B catalytic domain was expressed in and purified from E. coli; made in house; host or cells: E. coli; details: AC200 = [Compound] that doubles PDE activity; read-out: IC50 (or AC200), PDE7B
Experimental: The PDE7B catalytic domain was expressed in and purified from E. coli and tested for activity in an in vitro enzyme assay, measuring the hydrolysis of cAMP to AMP. Four dilutions of the enzyme preparation were tested at various compound concentrations (X axis). The percent of cAMP hydrolyzed is plotted on the Y axis.
Target sequence in this assay (Q9NP56 97-420 limits assumed, species assumed): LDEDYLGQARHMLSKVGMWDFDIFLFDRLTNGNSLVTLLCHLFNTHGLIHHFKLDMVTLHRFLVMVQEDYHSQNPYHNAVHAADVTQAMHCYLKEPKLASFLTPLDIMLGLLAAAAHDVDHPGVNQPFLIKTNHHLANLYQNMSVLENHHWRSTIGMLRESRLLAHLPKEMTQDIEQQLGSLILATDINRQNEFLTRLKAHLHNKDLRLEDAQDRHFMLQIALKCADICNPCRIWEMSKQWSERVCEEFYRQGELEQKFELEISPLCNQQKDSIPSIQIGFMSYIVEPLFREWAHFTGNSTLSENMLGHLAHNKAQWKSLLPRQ

[3] = biological target: T2, PDE7A (Homo sapiens, UniProt Q13946); experiment: 5FOA growth assay in fission yeast strain expressing PDE7A; type: cell-based; parameters: targets used in the assays are full-length proteins (as opposed to simply the catalytic domain); expressed in transfected cells; host or cells: Schizosaccharomyces pombe, PDE gene integrated in place of cgs2; details: OD600 0.6; read-out: ED50 for 5FOA growth assays, PDE7A
T2 sequence (Q13946 whole entry, the tested form may be a part): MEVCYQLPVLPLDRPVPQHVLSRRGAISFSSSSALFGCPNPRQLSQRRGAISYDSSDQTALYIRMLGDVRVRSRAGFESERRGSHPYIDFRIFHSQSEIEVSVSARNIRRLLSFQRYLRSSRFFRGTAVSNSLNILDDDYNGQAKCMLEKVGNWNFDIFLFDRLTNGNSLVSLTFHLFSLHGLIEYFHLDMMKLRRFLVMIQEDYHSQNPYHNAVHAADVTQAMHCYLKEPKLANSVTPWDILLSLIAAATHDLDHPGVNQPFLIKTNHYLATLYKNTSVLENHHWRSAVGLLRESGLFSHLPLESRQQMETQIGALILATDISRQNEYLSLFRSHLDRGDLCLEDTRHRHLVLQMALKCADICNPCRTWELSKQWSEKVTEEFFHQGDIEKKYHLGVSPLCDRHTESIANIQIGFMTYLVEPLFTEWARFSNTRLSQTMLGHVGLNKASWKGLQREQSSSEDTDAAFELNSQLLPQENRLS
Method in brief: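 Growth stimulation, reported as composite Z scores, was read as OD600 after 48 h at 30 °C in 5FOA medium. Before this, reporter (fbp1-ura4) yeast were grown at 30 °C in EMM with 0–2.5 mM cAMP or 0.5/1.0 mM cGMP to repress the reporter, then exposed to 100 nl pinned compound (stocks generally 10 mM).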

[4] = biological target: T3, PDE8A (Mus musculus, UniProt O88502); experiment: fbp1-lacZ β-galactosidase reporter assay, PDE8A strain; type: cell-based, murine; details: strain DDP13 (PDE8A)
T3 construct: targets used in the assays are full-length proteins (as opposed to simply the catalytic domain); expressed in transfected cells; host or cells: Schizosaccharomyces pombe, PDE gene integrated in place of cgs2 (strains CHP1141, DDP13)
T3 sequence (O88502 1-823): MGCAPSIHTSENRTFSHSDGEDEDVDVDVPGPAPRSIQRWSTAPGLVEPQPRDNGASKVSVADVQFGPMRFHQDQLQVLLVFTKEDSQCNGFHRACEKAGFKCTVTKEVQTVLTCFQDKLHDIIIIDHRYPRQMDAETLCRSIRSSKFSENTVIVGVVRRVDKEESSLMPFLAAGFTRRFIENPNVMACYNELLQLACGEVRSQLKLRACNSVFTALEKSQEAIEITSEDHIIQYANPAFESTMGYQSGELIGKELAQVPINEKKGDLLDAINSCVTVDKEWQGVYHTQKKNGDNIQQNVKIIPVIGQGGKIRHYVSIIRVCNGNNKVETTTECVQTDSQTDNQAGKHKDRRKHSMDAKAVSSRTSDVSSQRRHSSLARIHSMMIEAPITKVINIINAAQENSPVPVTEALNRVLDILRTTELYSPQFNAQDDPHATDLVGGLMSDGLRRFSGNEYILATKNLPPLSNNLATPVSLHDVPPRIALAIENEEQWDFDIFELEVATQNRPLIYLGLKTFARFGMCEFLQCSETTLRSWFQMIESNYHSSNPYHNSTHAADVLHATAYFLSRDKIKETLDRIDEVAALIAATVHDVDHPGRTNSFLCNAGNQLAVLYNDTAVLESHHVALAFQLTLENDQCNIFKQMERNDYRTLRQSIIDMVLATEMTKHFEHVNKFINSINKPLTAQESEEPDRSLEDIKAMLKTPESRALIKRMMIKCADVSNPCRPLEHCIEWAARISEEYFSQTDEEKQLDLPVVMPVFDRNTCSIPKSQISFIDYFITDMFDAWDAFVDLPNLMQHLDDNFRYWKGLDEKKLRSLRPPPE
Experimental: as §1, §2

[5] = biological target: T3, PDE8A; experiment: cAMP levels in yeast strain expressing PDE8A; type: cell-based, murine; details: rolipram treatment
Experimental: Values represent the average and SD of two or three independent experiments. […] The strains used are as in FIG. 5A, together with strain CHP1141 (PDE8A). Values represent the average and SD of two or three independent experiments.
as §1
Thus, PDE inhibition can be indirectly quantitated by measuring the effect of a compound on cAMP levels in target yeast strains.

[6] = biological target: T1, PDE7B; experiment: 5FOA growth assay in fission yeast strain expressing PDE7B; type: cell-based; parameters: targets used in the assays are full-length proteins (as opposed to simply the catalytic domain); expressed in transfected cells; host or cells: Schizosaccharomyces pombe; details: OD600 0.6; read-out: ED50 for 5FOA growth assays, PDE7B
Experimental: PDE inhibition allows growth in 5FOA medium as measured by optical density after 48 hours incubation at 30° C. Compound BC12 and six structural analogs were tested for growth stimulation.
Cells were pregrown in EMM medium [MP Biomedicals (Solon, Ohio), 3% glucose, filter-sterilized to avoid carmelization, which would introduce variability into the optical density of the medium] containing from 0 mM to 2.5 mM cAMP (or either 0.5 mM or 1.0 mM cGMP). This was to repress expression of the fbp1-ura4 reporter prior to exposure of cells to 5FOA medium. Cells were grown at 30° C. to exponential phase (approximately 10^7 cells/ml). Cells were collected by centrifugation and resuspended in 5FOA medium, and 25 μl were transferred to 384-well microtiter dishes (untreated, with flat clear bottoms) that had been pre-filled with 25 μl 5FOA medium and pre-pinned with 100 nl of compounds (stock solutions were generally 10 mM). Starting cell concentrations ranged from 0.5×10^5 to 4×10^5 cells/ml depending on the screening strain. […] Other positive control dishes contained 5 mM cAMP in the 5FOA medium for PDEs that lack appropriate control compounds. Cultures were grown for 48 hours at 30° C., sealed in an airtight container with moist paper towels to prevent evaporation. Optical densities (OD600) of cultures were measured using a microplate reader. Bioinformatic analysis of the results to determine composite Z scores was performed as previously described (1, 3).
Target sequence in this assay (Q9NP56 whole entry, species assumed, the tested form may be a part): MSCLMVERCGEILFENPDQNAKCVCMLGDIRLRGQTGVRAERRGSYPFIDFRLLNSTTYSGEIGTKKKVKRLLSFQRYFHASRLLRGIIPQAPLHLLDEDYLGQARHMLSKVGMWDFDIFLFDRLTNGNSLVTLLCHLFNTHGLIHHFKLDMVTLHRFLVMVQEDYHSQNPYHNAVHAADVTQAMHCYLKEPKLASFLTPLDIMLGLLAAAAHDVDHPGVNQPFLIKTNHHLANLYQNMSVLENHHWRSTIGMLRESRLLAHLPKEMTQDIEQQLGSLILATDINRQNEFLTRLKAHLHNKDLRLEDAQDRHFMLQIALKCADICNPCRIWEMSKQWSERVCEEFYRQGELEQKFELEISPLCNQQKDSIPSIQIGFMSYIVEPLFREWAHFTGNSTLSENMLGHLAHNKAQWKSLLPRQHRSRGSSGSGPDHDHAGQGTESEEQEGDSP

[7] = system: U937 cells; experiment: TNF alpha release by LPS-treated U937 cells; type: cell-based; details: for TNF alpha, % vehicle control: 10 uM cmpd, 0 uM BC30
[8] = system: PDE2A, PDE4A, PDE4B, Cgs2; experiment: Parallel high throughput 5FOA growth screens of bioactive libraries; type: cell-based, murine PDEs; yeast Cgs2; details: 3,120 bioactive compounds, average 20 μM
Experimental: High throughput drug screens were carried out at the Broad Institute's Chemical Biology Program screening facility (Broad Institute, Cambridge, Mass.). Depending upon the strain, cultures were pregrown to exponential phase in EMM complete medium containing from 0.5 to 2.5 mM cAMP to repress fbp1-ura4 transcription. […] Starting cell concentrations ranged from 0.5×10^5 to 4×10^5 cells/ml depending on the screening strain. […] Other positive control dishes contained 5 mM cAMP in the 5FOA medium. Cultures were grown for 48 hours at 30° C., sealed in an airtight container with moist paper towels to prevent evaporation. Optical densities (OD600) of cultures were measured using a microplate reader. Bioinformatic analysis of the results to determine composite Z scores was performed as previously described^30, 31.

[9] = biological target: T4, Cgs2 (Schizosaccharomyces pombe, UniProt P36599); experiment: fbp1-lacZ β-galactosidase reporter assay, Cgs2 strain; type: cell-based, S. pombe; details: strain CHP861 (Cgs2)
T4 construct: expressing either the wild-type S. pombe Cgs2^+ PDE; endogenous in cells; host or cells: Schizosaccharomyces pombe strain CHP861
T4 sequence (P36599 whole entry): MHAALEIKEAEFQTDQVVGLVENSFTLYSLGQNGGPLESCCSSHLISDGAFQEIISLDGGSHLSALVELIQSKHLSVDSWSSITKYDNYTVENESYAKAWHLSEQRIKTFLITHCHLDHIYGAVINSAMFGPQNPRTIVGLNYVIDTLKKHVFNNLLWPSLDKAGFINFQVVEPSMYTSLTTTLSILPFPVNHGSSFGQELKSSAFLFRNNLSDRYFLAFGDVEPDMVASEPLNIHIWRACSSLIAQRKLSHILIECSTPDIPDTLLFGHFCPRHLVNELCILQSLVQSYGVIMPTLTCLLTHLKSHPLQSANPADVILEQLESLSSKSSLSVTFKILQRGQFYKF
Experimental: as §1, §2

[10] = biological target: PDE4B (Homo sapiens, UniProt Q07343); experiment: in vitro enzyme assay PDE4B (Table 7); type: biochemical; details: 2 micromolar compound; read-out: percent of PDE activity present, PDE4B
Chain of PDE4B (Q07343 whole entry, species assumed, the tested form may be a part): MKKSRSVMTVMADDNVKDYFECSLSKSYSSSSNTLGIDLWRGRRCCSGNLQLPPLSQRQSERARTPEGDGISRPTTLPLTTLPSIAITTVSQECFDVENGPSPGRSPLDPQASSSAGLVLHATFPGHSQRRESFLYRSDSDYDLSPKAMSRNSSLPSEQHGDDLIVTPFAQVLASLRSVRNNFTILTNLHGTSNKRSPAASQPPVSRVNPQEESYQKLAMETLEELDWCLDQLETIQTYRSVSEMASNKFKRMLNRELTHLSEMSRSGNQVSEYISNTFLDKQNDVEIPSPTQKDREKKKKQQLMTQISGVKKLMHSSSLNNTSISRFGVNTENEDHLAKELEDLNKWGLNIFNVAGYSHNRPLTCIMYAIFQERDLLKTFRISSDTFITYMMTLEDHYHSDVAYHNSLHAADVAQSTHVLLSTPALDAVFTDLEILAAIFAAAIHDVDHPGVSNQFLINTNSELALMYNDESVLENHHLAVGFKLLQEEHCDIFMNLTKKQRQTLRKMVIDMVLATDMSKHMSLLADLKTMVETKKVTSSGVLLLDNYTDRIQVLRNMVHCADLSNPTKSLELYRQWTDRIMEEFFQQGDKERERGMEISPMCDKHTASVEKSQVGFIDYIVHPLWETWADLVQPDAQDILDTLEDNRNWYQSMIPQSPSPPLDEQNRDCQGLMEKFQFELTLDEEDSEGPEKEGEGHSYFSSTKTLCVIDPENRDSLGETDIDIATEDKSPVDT

[11] = biological target: PDE4B2 (Homo sapiens, UniProt Q07343); experiment: in vitro enzyme assay, E. coli expressed and purified PDE4B2; type: biochemical; parameters: targets used in the assays are full-length proteins (as opposed to simply the catalytic domain); details: read-out: IC50 (or AC200), PDE4B2
Chain of PDE4B2 (Q07343 1-564 isoform Q07343-2, species assumed): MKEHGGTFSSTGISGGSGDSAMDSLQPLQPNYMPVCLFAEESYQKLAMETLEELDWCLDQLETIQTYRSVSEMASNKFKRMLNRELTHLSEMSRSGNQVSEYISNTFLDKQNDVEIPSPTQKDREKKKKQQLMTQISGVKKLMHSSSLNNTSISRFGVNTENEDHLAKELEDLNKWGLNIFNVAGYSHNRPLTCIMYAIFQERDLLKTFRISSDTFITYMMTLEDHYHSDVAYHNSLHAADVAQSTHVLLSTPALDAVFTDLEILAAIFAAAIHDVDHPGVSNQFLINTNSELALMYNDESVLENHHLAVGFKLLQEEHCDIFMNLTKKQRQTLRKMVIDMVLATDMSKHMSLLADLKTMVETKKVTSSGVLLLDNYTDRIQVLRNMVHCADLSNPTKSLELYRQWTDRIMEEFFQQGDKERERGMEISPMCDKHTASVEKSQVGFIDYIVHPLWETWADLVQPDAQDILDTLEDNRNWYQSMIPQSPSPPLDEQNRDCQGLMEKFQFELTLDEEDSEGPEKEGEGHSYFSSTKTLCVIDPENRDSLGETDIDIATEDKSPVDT

[12] = biological target: PDE4A (Homo sapiens, UniProt P27815); experiment: in vitro enzyme assay PDE4A (Table 7); type: biochemical; details: 2 micromolar compound; read-out: percent of PDE activity present, PDE4A
Chain of PDE4A (P27815 whole entry, species assumed, the tested form may be a part): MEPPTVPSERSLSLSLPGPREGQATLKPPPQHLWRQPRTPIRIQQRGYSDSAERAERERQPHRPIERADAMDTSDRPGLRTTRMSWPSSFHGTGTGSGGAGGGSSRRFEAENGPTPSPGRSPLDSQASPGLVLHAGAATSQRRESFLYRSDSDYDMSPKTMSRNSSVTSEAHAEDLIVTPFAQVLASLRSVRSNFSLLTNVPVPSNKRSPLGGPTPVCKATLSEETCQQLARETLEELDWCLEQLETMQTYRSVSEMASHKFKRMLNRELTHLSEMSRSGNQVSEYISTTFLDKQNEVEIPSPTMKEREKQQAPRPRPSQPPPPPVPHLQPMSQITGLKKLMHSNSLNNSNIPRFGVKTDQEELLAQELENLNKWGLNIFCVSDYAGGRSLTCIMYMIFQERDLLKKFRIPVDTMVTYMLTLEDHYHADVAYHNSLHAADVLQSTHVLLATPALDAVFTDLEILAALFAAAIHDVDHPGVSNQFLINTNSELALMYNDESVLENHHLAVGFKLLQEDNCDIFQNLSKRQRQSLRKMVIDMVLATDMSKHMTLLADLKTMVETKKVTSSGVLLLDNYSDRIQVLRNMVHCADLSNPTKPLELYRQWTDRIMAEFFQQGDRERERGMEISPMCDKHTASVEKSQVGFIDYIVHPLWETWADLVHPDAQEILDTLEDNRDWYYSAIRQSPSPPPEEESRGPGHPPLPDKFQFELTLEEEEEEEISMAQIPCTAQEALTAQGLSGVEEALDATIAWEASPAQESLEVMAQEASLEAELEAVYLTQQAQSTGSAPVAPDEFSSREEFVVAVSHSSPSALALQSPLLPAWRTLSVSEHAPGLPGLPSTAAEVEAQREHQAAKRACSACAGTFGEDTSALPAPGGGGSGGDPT

[13] = biological target: T5, PDE4D2-CAT (Homo sapiens, UniProt Q08499); experiment: in vitro enzyme assay, catalytic fragment of PDE4D2 (residues 86-413); type: biochemical; details: catalytic fragment; AC200 = [Compound] that doubles PDE activity; read-out: IC50 (or AC200), PDE4D2-CAT
T5 construct: 86-413; made in house; host or cells: E. coli
T5 sequence (Q08499 388-715): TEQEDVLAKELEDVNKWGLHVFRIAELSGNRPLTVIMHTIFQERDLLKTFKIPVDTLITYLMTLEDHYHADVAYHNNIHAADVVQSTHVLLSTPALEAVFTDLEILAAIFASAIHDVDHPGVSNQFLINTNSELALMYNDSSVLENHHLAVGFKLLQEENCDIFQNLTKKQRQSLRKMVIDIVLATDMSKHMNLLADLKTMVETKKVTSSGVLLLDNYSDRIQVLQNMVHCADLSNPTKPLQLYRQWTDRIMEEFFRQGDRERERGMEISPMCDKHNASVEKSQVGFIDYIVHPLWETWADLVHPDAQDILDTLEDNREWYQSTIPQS

[14] = biological target: PDE4D (Homo sapiens, UniProt Q08499); experiment: in vitro enzyme assay PDE4D (Table 7); type: biochemical; details: 2 micromolar compound; read-out: percent of PDE activity present, PDE4D
Chain of PDE4D (Q08499 whole entry): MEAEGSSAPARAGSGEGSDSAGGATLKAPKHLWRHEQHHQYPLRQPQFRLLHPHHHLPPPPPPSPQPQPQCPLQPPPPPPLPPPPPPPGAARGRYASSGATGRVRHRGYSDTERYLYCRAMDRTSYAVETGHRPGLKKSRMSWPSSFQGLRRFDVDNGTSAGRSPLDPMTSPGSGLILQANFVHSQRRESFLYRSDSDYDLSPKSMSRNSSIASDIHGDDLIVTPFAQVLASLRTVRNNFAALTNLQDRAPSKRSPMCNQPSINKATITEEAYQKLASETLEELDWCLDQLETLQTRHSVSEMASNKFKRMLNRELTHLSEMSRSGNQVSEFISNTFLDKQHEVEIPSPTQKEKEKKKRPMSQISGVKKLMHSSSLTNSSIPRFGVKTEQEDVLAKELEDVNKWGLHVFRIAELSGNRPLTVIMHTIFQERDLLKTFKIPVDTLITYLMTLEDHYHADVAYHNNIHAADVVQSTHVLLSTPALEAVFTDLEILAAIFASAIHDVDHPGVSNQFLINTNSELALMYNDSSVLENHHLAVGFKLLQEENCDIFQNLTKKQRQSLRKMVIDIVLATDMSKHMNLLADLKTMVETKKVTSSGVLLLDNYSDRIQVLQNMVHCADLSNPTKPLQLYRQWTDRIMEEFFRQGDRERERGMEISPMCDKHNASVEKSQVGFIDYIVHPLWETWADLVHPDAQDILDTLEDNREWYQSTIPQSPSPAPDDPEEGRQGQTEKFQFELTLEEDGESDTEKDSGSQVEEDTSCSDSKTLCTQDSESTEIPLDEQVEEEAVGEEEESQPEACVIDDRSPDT

[15] = biological target: T2, PDE7A; experiment: in vitro enzyme assay PDE7A; type: biochemical; parameters: made in house; host or cells: E. coli

For COc1ccc(C2CNC(=O)C2)cc1OC1CCCC1 (stereo not shown) [Rolipram, reference compound], the β-galactosidase activity ([1]; 50 μM Rolipram) was 19 ± 9, the β-galactosidase activity ([1]; 100 μM Rolipram) was 20 ± 11 and the pIC50 [2] was less than 5.70. The pEC50 [3] was less than 3.70, the β-galactosidase activity ([4]; 50 μM Rolipram) was 253 ± 46 and the β-galactosidase activity ([4]; 100 μM Rolipram) was 237 ± 67. The “cAMP levels in PDE8A strain” value [5] was “completely insensitive”, the pEC50 [6] was less than 3.70 and the TNF ([7]; 3 HOURS) was 3497 pg/mL. For the same compound, the “TNF alpha (EtoH = 100.0)” value ([7]; 3 HOURS) was 86.2, the “TNF, % EtOH cntrl” value ([7]; 3 HOURS) was 72.4% and the TNF ([7]; 20 HOURS) was 9362 pg/mL. For the same compound, the “TNF alpha (EtoH = 100.0)” value ([7]; 20 HOURS) was 86.3, the “TNF, % EtOH cntrl” value ([7]; 20 HOURS) was 68.4% and the “hit in high throughput screens (promotes 5FOA^R growth), in words” value [8] was “only affected the PDE4A- and PDE4B-expressing strains”. The β-galactosidase activity ([9]; 50 μM Rolipram, specific activity per milligram of soluble protein, average ± SD) was 1807 ± 446 and the β-galactosidase activity ([9]; 100 μM Rolipram) was 1784 ± 429.

Work on Cc1c(C(=O)Nc2ccc(F)cc2F)sc2ncnc(N3CCC(C)CC3)c12 [Compound 58] yielded a remaining activity at 2 µM [10] of 16%, a pIC50 [11] of 5.82 and a remaining activity at 2 µM [12] of 31%. For the same compound, the pIC50 [2] was less than 5.70, the pIC50 [13] was greater than 5.70 and the TNF ([7]; 3 HOURS) was 3345 pg/mL. The “TNF, % EtOH cntrl” value ([7]; 3 HOURS) was 69.2%, the TNF ([7]; 20 HOURS) was 10030 pg/mL and the “TNF, % EtOH cntrl” value ([7]; 20 HOURS) was 73.3%. For the same compound, the “TNF alpha, % vehicle control” value ([7]; after 3 h.) was 61.2%, the “TNF alpha, % vehicle control” value ([7]; after 20 h.) was 53.8% and the remaining activity at 2 µM [14] was 31%. The remaining activity at 2 µM ([15]; 2 micromolar compound, read-out: percent of PDE activity present, PDE7A) was 68% and the pIC50 ([15]; E. coli expressed and purified enzyme, read-out: IC50 (or AC200), PDE7A) was less than 5.70.
